Data: patent US20240051952A1, “HMOX1 INDUCERS” (Mitobridge Inc., priority 2019, published 2024)
“Also recorded” adds a separate entry of the source.

System: HbSS Townes sickle mice
Assay: F-cells in HbSS Townes sickle mice
Type: in vivo, mouse
From the text: Blood smears were made using heparinized whole blood for F-cells staining. Stained F-cells and total red blood cells were counted on the blood smears in four fields; mean=77 red blood cells/field. F-cells are expressed as a percentage of total red blood cells. Values are means+SD. One-Way ANOVA with Dunnett's Multiple comparison to Vehicle **p≤0.01, ***p≤0.001, ****p≤0.0001
Dosing Scheme of HMOX Inducers to HbSS Townes Sickle Mice
HbSS Townes sickle mice were oral gavaged once daily with Vehicle or the compound of Example 17 listed below for 8 days. To minimize experimental inconsistency, fresh formulation was prepared every day and vortexed prior to drawing test article into syringe for each dosing, and dosing was performed by the same individual throughout the day. The last-day dose was administered by oral gavage 4 hours prior to hemin infusion described below. • 1. […]
F-cells were stained on whole blood smears by the Kleihauer-Betke method using a fetal cell stain kit (Simmler) according to the manufacturer's instructions. F-cells and total erythrocytes were counted in 4 separate microscopic fields at 100× magnification for each mouse. The F-cells were expressed as a percentage of total erythrocytes (i.e., red blood cells). […]

Cn1c(Nc2nc3ccccc3o2)nc2cc(C(=O)NCCOCCO)ccc21 [Example 17, 2-(benzo[d]oxazol-2-ylamino)-N-(2-(2-hydroxyethoxy)ethyl)-1-methyl-1H-benzo[d]imidazole-5-carboxamide]
percent F-cells vs vehicle (10, 25, 50 mg/kg PO once daily 8 days): significantly increased; also recorded: percentage of F-cells increase
percent F-cells (all doses tested (10, 25, 50 mg/kg PO, 8 days), % of total red blood cells): 55-70%
